Drawing on patent US11919883B2, “Metalloenzyme inhibitor compounds” (Ji Xing Pharmaceuticals Hong Kong Limited, priority 2016, dated 2024), this text covers IC50 for 31 compounds.

Assay [1] has as its target T1, recombinant human CYP11B1 (Homo sapiens, UniProt P15538).
T1 construct: made in house; host or cells: V79-4 cells (enzyme enriched microsomal fraction of cell lysates)
T1 sequence (P15538 25-503): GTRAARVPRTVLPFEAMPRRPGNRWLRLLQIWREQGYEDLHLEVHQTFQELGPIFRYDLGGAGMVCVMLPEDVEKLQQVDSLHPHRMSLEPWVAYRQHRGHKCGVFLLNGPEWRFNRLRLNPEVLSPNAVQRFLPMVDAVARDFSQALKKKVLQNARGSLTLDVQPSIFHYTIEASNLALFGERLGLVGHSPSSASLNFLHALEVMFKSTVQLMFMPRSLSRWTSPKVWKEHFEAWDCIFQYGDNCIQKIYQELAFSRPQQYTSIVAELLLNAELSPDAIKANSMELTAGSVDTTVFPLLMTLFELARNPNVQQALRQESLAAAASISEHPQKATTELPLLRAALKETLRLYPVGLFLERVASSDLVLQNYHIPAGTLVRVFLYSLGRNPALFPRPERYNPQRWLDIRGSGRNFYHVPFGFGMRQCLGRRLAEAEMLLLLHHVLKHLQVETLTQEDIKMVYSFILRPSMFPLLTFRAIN
Nature of the assay: CYP11B1 enzyme assay, enzyme enriched microsomes from V79-4 cells, cortisol by LC-MS. Conditions: IC50 ranges; run at Km of 11-deoxycortisol; read-out: hCYP11B1 IC50. It counts as biochemical.

For assay [2], the target named is T2, recombinant human CYP11B2 (Homo sapiens, UniProt P19099).
T2 construct: made in house; host or cells: V79-4 cells (enzyme enriched microsomal fraction of cell lysates)
T2 sequence (P19099 25-503): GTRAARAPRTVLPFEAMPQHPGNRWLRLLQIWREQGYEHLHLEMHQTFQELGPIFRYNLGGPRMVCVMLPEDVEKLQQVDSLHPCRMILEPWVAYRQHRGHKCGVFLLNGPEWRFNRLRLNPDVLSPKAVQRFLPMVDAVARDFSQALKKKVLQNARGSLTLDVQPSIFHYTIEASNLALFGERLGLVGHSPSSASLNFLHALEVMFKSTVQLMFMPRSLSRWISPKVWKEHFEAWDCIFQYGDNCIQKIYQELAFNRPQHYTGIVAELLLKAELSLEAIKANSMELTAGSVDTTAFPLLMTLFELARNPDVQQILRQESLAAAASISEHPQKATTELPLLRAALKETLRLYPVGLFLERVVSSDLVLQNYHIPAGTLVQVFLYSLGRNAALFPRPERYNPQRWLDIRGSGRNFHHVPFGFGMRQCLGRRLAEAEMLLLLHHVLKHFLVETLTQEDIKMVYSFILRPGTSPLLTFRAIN
Briefly: CYP11B2 enzyme assay, enzyme enriched microsomes from V79-4 cells, aldosterone by LC-MS. The format is biochemical. To be noted: IC50 ranges; run at Km of 11-deoxycorticosterone; read-out: hCYP11B2 IC50.

`CCn1c(-c2cncnc2C)nc2ccc(C#N)cc21` [Example 18, 1-Ethyl-2-(4-methylpyrimidin-5-yl)-1H-benzo[d]imidazole-6-carbonitrile]: the 50% inhibitory concentration (IC50) (commonly the midpoint of a concentration-inhibition curve) in assay [1] was 1000 to 10000 nM; in assay [2] it was 1 to 100 nM.
In the same order, the values of `CC(=O)NCc1ncncc1-c1nc2ccc(F)cc2n1C1CC1` [Example 19, N-((5-(1-Cyclopropyl-6-fluoro-1H-benzo[d]imidazol-2-yl)pyrimidin-4-yl)methyl)acetamide] are more than 10000 nM and 1000 to 10000 nM.
In the case of `Cc1ncc(-c2nc3ccc(F)cc3n2C2CC2)cn1` [Example 20, 1-Cyclopropyl-6-fluoro-2-(2-methylpyrimidin-5-yl)-1H-benzo[d]imidazole], the results for the IC50 in assay [1] and in assay [2] were more than 10000 nM and 1000 to 10000 nM, respectively.
For the compound `Cc1ncncc1-c1nc2ccc(C#N)cc2n1C1CC1` [Example 21, 1-Cyclopropyl-2-(4-methylpyrimidin-5-yl)-1H-benzo[d]imidazole-6-carbonitrile], the IC50 was in the range of 1000 to 10000 nM in assay [1] and 1 to 100 nM in assay [2].
Consider `CC(C)c1ncncc1-c1nc2cc(F)c(F)cc2n1C1CC1` [Example 22, 1-Cyclopropyl-5,6-difluoro-2-(4-isopropylpyrimidin-5-yl)-1H-benzo[d]imidazole], for which the IC50 was in the range of 100 to 1000 nM in assay [1] and 1 to 100 nM in assay [2].
In the case of `Clc1ccc2nc(-c3cncnc3)n(C3CC3)c2c1` [Example 23, 6-Chloro-1-cyclopropyl-2-(pyrimidin-5-yl)-1H-benzo[d]imidazole], the IC50 in assay [1] was 1000 to 10000 nM; in assay [2], 1 to 100 nM.
For the compound `CC(C)c1ncncc1-c1nc2ccc(Cl)cc2n1C1CC1` [Example 24, 6-Chloro-1-cyclopropyl-2-(4-isopropylpyrimidin-5-yl)-1H-benzo[d]imidazole], the half-maximal inhibitory concentration (IC50) in assay [1] lay in the range of 1000 to 10000 nM; in assay [2], 1 to 100 nM.
The matching figures for `COc1ccc2nc(-c3cncnc3)n(C3CC3)c2c1` [Example 25, 1-Cyclopropyl-6-methoxy-2-(pyrimidin-5-yl)-1H-benzo[d]imidazole]: more than 10000 nM and 100 to 1000 nM.
In the same order, the values of `CS(=O)(=O)c1ccc2nc(-c3cncnc3)n(C3CC3)c2c1` [Example 26, 1-Cyclopropyl-6-(methylsulfonyl)-2-(pyrimidin-5-yl)-1H-benzo[d]imidazole] are more than 10000 nM and 1000 to 10000 nM.
In the same order, the values of `CC(C)c1ncncc1-c1nc2ccc(C#N)cc2n1C1CC1` [Example 28, 1-Cyclopropyl-2-(4-isopropylpyrimidin-5-yl)-1H-benzo[d]imidazole-6-carbonitrile] are 1000 to 10000 nM and 1 to 100 nM.
Turning to `Cc1ncnc(C)c1-c1nc2ccc(F)cc2n1C1CC1` [Example 29, 1-Cyclopropyl-2-(4,6-dimethylpyrimidin-5-yl)-6-fluoro-1H-benzo[d]imidazole], the IC50 in assay [1] and in assay [2] was more than 10000 nM each time.
For the compound `CNc1ncncc1-c1nc2cc(F)c(F)cc2n1C1CC1` [Example 31, 5-(1-Cyclopropyl-5,6-difluoro-1H-benzo[d]imidazol-2-yl)-N-methylpyrimidin-4-amine], the figures for the IC50 in assay [1] and in assay [2] were 100 to 1000 nM and 1 to 100 nM, respectively.
Consider `CN(C)c1ncncc1-c1nc2cc(F)c(F)cc2n1C1CC1` [Example 32, 5-(1-Cyclopropyl-5,6-difluoro-1H-benzo[d]imidazol-2-yl)-N,N-dimethylpyrimidin-4-amine], for which the IC50 in assay [1] is 1000 to 10000 nM; in assay [2] it was 1 to 100 nM.
The matching figures for `COCCNc1ncncc1-c1nc2cc(F)c(F)cc2n1C1CC1` [Example 33, 5-(1-Cyclopropyl-5,6-difluoro-1H-benzo[d]imidazol-2-yl)-N-(2-methoxyethyl)pyrimidin-4-amine]: 1000 to 10000 nM and 1 to 100 nM.
For the compound `CC(C)(C)Nc1ncncc1-c1nc2cc(F)c(F)cc2n1C1CC1` [Example 34, N-(tert-Butyl)-5-(1-cyclopropyl-5,6-difluoro-1H-benz[d]imidazol-2-yl)pyrimidin-4-amine], the figures for the IC50 in assay [1] and in assay [2] were 100 to 1000 nM and 1 to 100 nM, respectively.
In the same order, the values of `Fc1ccc2nc(-c3cnc(Cl)nc3Cl)n(C3CC3)c2c1` [Example 35, 1-Cyclopropyl-2-(2,4-dichloropyrimidin-5-yl)-6-fluoro-1H-benzo[d]imidazole] are more than 10000 nM and 1000 to 10000 nM.
The matching figures for `Fc1cc2nc(-c3cncnc3NCC(F)(F)F)n(C3CC3)c2cc1F` [Example 36, 5-(1-Cyclopropyl-5,6-difluoro-1H-benzo[d]imidazol-2-yl)-N-(2,2,2-trifluoroethyl)pyrimidin-4-amine]: 100 to 1000 nM and 1 to 100 nM.
The matching figures for `Fc1cc2nc(-c3cncnc3NCCC(F)(F)F)n(C3CC3)c2cc1F` [Example 37, 5-(1-Cyclopropyl-5,6-difluoro-1H-benzo[d]imidazol-2-yl)-N-(3,3,3-trifluoropropyl)pyrimidin-4-amine]: 100 to 1000 nM and 1 to 100 nM.
On to `CNc1ncncc1-c1nc2ccc(C#N)cc2n1C1CC1` [Example 39, 1-Cyclopropyl-2-(4-(methylamino)pyrimidin-5-yl)-1H-benzo[d]imidazole-6-carbonitrile], for which the IC50 in assay [1] was in the range of 100 to 1000 nM; in assay [2] it was 1 to 100 nM.
In the same order, the values of `CCCc1ncncc1-c1nc2ccc(C#N)cc2n1C1CC1` [Example 40, 1-Cyclopropyl-2-(4-propylpyrimidin-5-yl)-1H-benzo[d]imidazole-6-carbonitrile] are 100 to 1000 nM and 1 to 100 nM.
Consider `CCn1c(-c2cncnc2C(C)C)nc2ccc(C#N)cc21` [Example 41, 1-Ethyl-2-(4-isopropylpyrimidin-5-yl)-1H-benzo[d]imidazole-6-carbonitrile], for which the IC50 lay in the range of 1000 to 10000 nM in assay [1] and 1 to 100 nM in assay [2].
In the same order, the values of `FC(F)(F)Oc1ccc2nc(-c3cncnc3)n(C3CC3)c2c1` [Example 42, 1-Cyclopropyl-2-(pyrimidin-5-yl)-6-(trifluoromethoxy)-1H-benzo[d]imidazole] are 1000 to 10000 nM and 100 to 1000 nM.
As for `N#Cc1ccc2nc(-c3cncnc3)n(CC(F)(F)F)c2c1` [Example 43, 2-(Pyrimidin-5-yl)-1-(2,2,2-trifluoroethyl)-1H-benzo[d]imidazole-6-carbonitrile], the IC50 was more than 10000 nM in assay [1] and 1000 to 10000 nM in assay [2].
The matching figures for `CCc1ncncc1-c1nc2cc(F)c(F)cc2n1C1CC1` [Example 45, 1-Cyclopropyl-2-(4-ethylpyrimidin-5-yl)-5,6-difluoro-1H-benzo[d]imidazole]: 1000 to 10000 nM and 1 to 100 nM.
Consider `N#Cc1ncncc1-c1nc2cc(F)c(F)cc2n1C1CC1` [Example 46, 5-(1-Cyclopropyl-5,6-difluoro-1H-benzo[d]imidazol-2-yl) pyrimidine-4-carbonitrile], for which the values for the IC50 in assay [1] and in assay [2] were 1000 to 10000 nM and 1 to 100 nM, respectively.
Turning to `CCn1c(-c2cncnc2)cc2ccc(Cl)cc21` [Example 47, 6-Chloro-1-ethyl-2-(pyrimidin-5-yl)-1H-indole], the IC50 in assay [1] is 100 to 1000 nM; in assay [2] it was 1 to 100 nM.
The matching figures for `Cc1ncncc1-c1nc2ccc(Cl)nc2n1C1CC1` [Example 48, 5-Chloro-3-cyclopropyl-2-(4-methylpyrimidin-5-yl)-3H-imidazo[4,5-b]pyridine]: 1000 to 10000 nM and 1 to 100 nM.
The matching figures for `Cc1ncncc1-c1nc2ccc(C#N)cc2n1CC(F)(F)F` [Example 49, 2-(4-Methylpyrimidin-5-yl)-1-(2,2,2-trifluoroethyl)-1H-benzo[d]imidazole-6-carbonitrile]: more than 10000 nM and 100 to 1000 nM.
The matching figures for `FC(F)c1ncncc1-c1nc2ccc(Cl)cc2n1C1CC1` [Example 50, 6-Chloro-1-cyclopropyl-2-(4-(difluoromethyl)pyrimidin-5-yl)-1H-benzo[d]imidazole]: 1000 to 10000 nM and 1 to 100 nM.
Take `CCn1c(-c2cncnc2C(F)F)nc2ccc(C#N)cc21` [Example 51, 2-(4-(Difluoromethyl)pyrimidin-5-yl)-1-ethyl-1H-benzo[d]imidazole-6-carbonitrile]: the IC50 in assay [1] is more than 10000 nM; in assay [2], 1 to 100 nM.
`Cc1ncncc1-c1nc2ccc(C#N)nc2n1C1CC1` [Example 52, 3-Cyclopropyl-2-(4-methylpyrimidin-5-yl)-3H-imidazo[4,5-b]pyridine-5-carbonitrile]: the IC50 in assay [1] was 1000 to 10000 nM; in assay [2], 1 to 100 nM.
